Data published in patent publication US8440424B2, “Identification of antibiotic resistance using labelled antibiotics” (miacom Diagnostics GmbH, priority 2008, dated 2013).
Read-outs that look alike come from different tables or passages of the source.

Experiments:
[1] = system: High level Aminoglycoside Resistance in Enterococci (HLAR); test: Binding of fluorescent labelled antibiotic, resistant vs non-resistant form: HLAR; conditions: reduction in Streptomycin binding; HLAR Enterococci relative to non-resistant form; fluorescent label
Experimental: (§1) An in-situ hybridisation protocol may be applied as laid down in patent application EP 06 021 267.7, which is incorporated herein by reference. The incubation with a labelled antibiotic may be performed at temperatures below the Tm of the hybridised probe. In a preferred embodiment the temperature is between about 25 and about 65° C., in a more preferred embodiment the temperature is between about 35° C. and about 59° C. In an even more preferred embodiment, the temperature is at about 52° C. The incubation time is preferably between about 1 and about 30 minutes. In a more preferred embodiment the incubation is made for about 15 minutes. After the incubation the slide may be submerged in 50% ethanol followed by a bath in pure ethanol. Both steps may be run for between about 1 and about 10 minutes. The preferred length of incubation is between about 2 and about 6 minutes. It is more preferred to incubate about 4 minutes. […]
(§2) An antibiotic resistance, such as a resistance against penicillin, may be detected in a protocol comprising the steps:
(§3) Table 4 indicates the alteration of the amount of detectable labelled antibiotics in clinically relevant micro-organisms in its resistant form relative to its non-resistant form. The amount is expressed in % change of fluorescence (decrease and increase, respectively) of an antibiotic which carries a fluorescent label.

[2] = system: 23S rRNA; conditions: cited from earlier work
[3] = system: Vancomycin resistant SA (VRSA); test: Binding of fluorescent labelled antibiotic, resistant vs non-resistant form: VRSA; design: species or system Staphylococcus aureus; conditions: binding of labelled Vancomycin relative to non-resistant form
Excerpt: (§4) Another preferred application is the detection of the binding of Vancomycin to surface proteins of Staphylococcus aureus which are anchored to the cell wall peptidoglycan. Vancomycin resistant Staphylococci bind the antibiotic to such an extent that it renders Vancomycin ineffective. Labelled Vancomycin therefore will preferably bind to resistant organisms.
(§5) An in-situ hybridisation protocol may be applied as laid down in patent application EP 06 021 267.7, which is incorporated herein by reference. The incubation with a labelled antibiotic may be performed at temperatures below the Tm of the hybridised probe. In a preferred embodiment the temperature is between about 25 and about 65° C., in a more preferred embodiment the temperature is between about 35° C. and about 59° C. In an even more preferred embodiment, the temperature is at about 52° C. The incubation time is preferably between about 1 and about 30 minutes. […]
as §2, §3

[4] = system: Vancomycin resistant Enterococci (VRE); test: Binding of fluorescent labelled antibiotic, resistant vs non-resistant form: VRE; conditions: reduction of vancomycin binding; VRE relative to non-resistant form; fluorescent label
Experimental: as §1, §2, §3

[5] = system: Vancomycin resistant Staph (VRS); test: Binding of fluorescent labelled antibiotic, resistant vs non-resistant form: VRS; design: species or system Staphylococci (CNS); conditions: increased binding of Vancomycin; VRS relative to non-resistant form; fluorescent label
Excerpt: as §4, §5, §2, §3

[6] = system: Vancomycin intermediary SA (VISA); test: Binding of fluorescent labelled antibiotic, resistant vs non-resistant form: VISA; design: species or system Staphylococcus aureus; conditions: increased binding of Vancomycin; VISA relative to non-resistant form; fluorescent label
Experimental: as §1, §2, §3

[7] = system: Vancomycin resistant Enterococci (VRE); conditions: stated as resistance mechanism; cited from earlier work
[8] = system: Extended Spectrum β-Lactamase (ESBL) Enterobacteriaceae; test: Binding of fluorescent labelled clavulanic acid: ESBL Enterobacteriaceae; conditions: increase, ESBL Enterobacteriaceae relative to non-resistant form
Experimental: as §1, §2, §3

[9] = system: Extended Spectrum β-Lactamase (ESBL) Pseudomonas spp.; test: Binding of fluorescent labelled clavulanic acid: ESBL Pseudomonas spp.; conditions: increase, ESBL Pseudomonas spp. relative to non-resistant form
Experimental: as §1, §2, §3

[10] = system: Extended Spectrum β-Lactamase (ESBL) BCC; test: Binding of fluorescent labelled clavulanic acid: ESBL BCC; conditions: increase, ESBL BCC relative to non-resistant form
Experimental: as §1, §2, §3

[11] = system: Extended Spectrum β-Lactamase (ESBL) Acinetobacter; test: Binding of fluorescent labelled clavulanic acid: ESBL Acinetobacter; conditions: increase, ESBL Acinetobacter relative to non-resistant form
Experimental: as §1, §2, §3

[12] = system: Extended Spectrum β-Lactamase (ESBL) Stenotrophomonas maltophilia; test: Binding of fluorescent labelled clavulanic acid: ESBL Stenotrophomonas maltophilia; conditions: increase, ESBL Stenotrophomonas maltophilia relative to non-resistant form
Experimental: as §1, §2, §3

[13] = system: Community acquired MRSA (CA-MRSA); type: binding, Staphylococcus aureus
Experimental: The incubation with a labelled antibiotic may be performed at temperatures below the Tm of the hybridised probe. In a preferred embodiment the temperature is between about 25 and about 65° C., in a more preferred embodiment the temperature is between about 35° C. and about 59° C. In an even more preferred embodiment, the temperature is at about 52° C. The incubation time is preferably between about 1 and about 30 minutes. In a more preferred embodiment the incubation is made for about 15 minutes. After the incubation the slide may be submerged in 50% ethanol followed by a bath in pure ethanol. Both steps may be run for between about 1 and about 10 minutes. The preferred length of incubation is between about 2 and about 6 minutes. It is more preferred to incubate about 4 minutes. The slides may then be air-dried (e.g. on a hot plate) and the cells may be embedded in a balanced salt mounting medium.

[14] = system: Methicillin Resistant Staphylococcus aureus (MRSA); test: Binding of fluorescent labelled antibiotic, resistant vs non-resistant form: MRSA; conditions: reduction of Penicillin binding; MRSA relative to non-resistant form; antibiotic carries a fluorescent label
Experimental: as §1, §2, §3

[15] = system: Oxacillin resistant SA (ORSA); test: Binding of fluorescent labelled antibiotic, resistant vs non-resistant form: ORSA; design: species or system Staphylococcus aureus; conditions: reduction of penicillin binding; ORSA relative to non-resistant form; fluorescent label
Experimental: as §1, §2, §3

[16] = system: Border.line oxacillin resistant SA (BORSA); test: Binding of fluorescent labelled antibiotic, resistant vs non-resistant form: BORSA; design: species or system Staphylococcus aureus; conditions: reduction of penicillin binding; BORSA relative to non-resistant form; fluorescent label
Experimental: as §1, §2, §3

[H]/N=C(/N)N[C@H]1[C@H](O)[C@@H](O)[C@H](O[C@@H]2O[C@@H](C)[C@](O)(C=O)[C@H]2O[C@@H]2O[C@@H](CO)[C@H](O)[C@@H](O)[C@@H]2NC)[C@@H](N/C(N)=N\[H])[C@@H]1O [Streptomycin, reference compound]
% Change in Fluorescenc [1]: >80% | Phenotype ([2]; 23S rRNA position 2661 "G to C", E. coli, when expressed with Smr, hyperaccurate S12 mutation): streptomycin dependent

CN[C@H](CC(C)C)C(=O)N[C@H]1C(=O)N[C@@H](CC(N)=O)C(=O)N[C@H]2C(=O)N[C@H]3C(=O)N[C@H](C(=O)N[C@H](C(=O)O)c4cc(O)cc(O)c4-c4cc3ccc4O)[C@H](O)c3ccc(c(Cl)c3)Oc3cc2cc(c3O[C@@H]2O[C@H](CO)[C@@H](O)[C@H](O)[C@H]2O[C@H]2C[C@](C)(N)[C@H](O)[C@H](C)O2)Oc2ccc(cc2Cl)[C@H]1O [Vancomycin]
Effect of resistance on fluorescence [3]: Increased | % Change in Fluorescenc [4]: >80% | % Change in Fluorescenc [5]: >50% | % Change in Fluorescenc [6]: 20-50% | Reduced affinity to Van [7]: Reduced affinity to Van by 3 orders of magnitude

O=C(O)[C@H]1/C(=C/CO)O[C@@H]2CC(=O)N21 [clavulanic acid]
% Change in Fluorescenc [8]: >80% | % Change in Fluorescenc [9]: >80% | % Change in Fluorescenc [10]: >80% | % Change in Fluorescenc [11]: >80% | % Change in Fluorescenc [12]: >80%

C=C(NC(=O)C(=C)NC(=O)c1csc(C2=N[C@@H]3c4csc(n4)[C@H]4NC(=O)c5csc(n5)[C@H]([C@](C)(O)[C@@H](C)O)NC(=O)[C@H]5CSC(=N5)/C(=C/C)NC(=O)[C@H]([C@@H](C)O)NC(=O)c5csc(n5)[C@]3(CC2)NC(=O)[C@H](C)NC(=O)C(=C)NC(=O)[C@H](C)NC(=O)[C@H]([C@@H](C)CC)N[C@@H]2C=Cc3c([C@H](C)O)cc(nc3[C@H]2O)C(=O)O[C@@H]4C)n1)C(N)=O [thiostrepton]
Phenotype: binding in RNA fragments ([2]; 23S rRNA position 1056 G to C, E. coli): weakened in RNA | Phenotype: drug binding affinity ([2]; 23S rRNA position 1067 A to C, E. coli): affinity is reduced similarly. | Phenotype: drug binding affinity ([2]; 23S rRNA position 1067 A to G, E. coli): affinity is reduced similarly. | Phenotype: drug binding affinity ([2]; 23S rRNA position 1067 A to U, E. coli): affinity is reduced similarly. | Phenotype: thiostrepton resistance in poly (U) translation ([2]; 23S rRNA position 1067 A to U, E. coli, mutant constituted 30% of the total 23S rRNA pool in the ribosomes): ribosomes; exhibited 30%

COc1cc(Cc2cnc(N)nc2N)cc(OC)c1OC [trimethoprim, Trimethoprim]
Effect of resistance on fluorescence ([13]; CA-MRSA, binding capacity for the labelled antibiotic): Maintaims binding

Penicillin
% Change in Fluorescenc [14]: > to ≈80% | % Change in Fluorescenc ([13]; reduction of penicillin binding, CA-MRSA relative to non-resistant form, antibiotic carries a fluorescent label): > to ≈80% | % Change in Fluorescenc [15]: > to ≈80% | % Change in Fluorescenc [16]: > to ≈80%

spiramycin
Phenotype ([2]; 23S rRNA position 2611 "C to G", Chlamydomonas reinhardtii, Gauthier et al. 1988): spiramycin resistance | Phenotype ([2]; 23S rRNA position 2611 "C to G", Yeast mitochondria, Sor and Fukahara 1984): spiramycin resistance
